# Measured values taken from patent US20250197842A1, “IMPROVING ENZYMATIC CHANNELING EFFICIENCY VIA MIXED NANOPARTICLE SCAFFOLDS WITHIN SELF-ASSEMBLED NANOPARTICLE ENZYME CLUSTERS” (The Government of the United States of America, as …, priority 2023, published 2025).
# T1: E. coli BL21(DE3) lactate dehydrogenase LDH (EC 1.1.1.28), N-terminal (His)6, SEQ ID NO 2, free in solution (Escherichia coli, UniProt P52643)
# T1 sequence (P52643 with tags, fused parts or gaps): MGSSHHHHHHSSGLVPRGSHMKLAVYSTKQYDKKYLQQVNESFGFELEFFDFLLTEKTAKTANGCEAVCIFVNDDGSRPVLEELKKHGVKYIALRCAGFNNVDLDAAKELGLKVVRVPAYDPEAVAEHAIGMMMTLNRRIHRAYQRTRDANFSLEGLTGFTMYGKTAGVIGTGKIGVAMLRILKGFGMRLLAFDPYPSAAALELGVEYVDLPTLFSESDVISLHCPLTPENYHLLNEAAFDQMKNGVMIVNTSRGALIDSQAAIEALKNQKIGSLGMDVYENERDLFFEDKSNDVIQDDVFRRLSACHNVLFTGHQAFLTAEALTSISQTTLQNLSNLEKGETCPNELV
# T2: E. coli BL21(DE3) lactate dehydrogenase LDH (EC 1.1.1.28), N-terminal (His)6, SEQ ID NO 2, assembled on 525 QDs (Escherichia coli, UniProt P52643)
# T2 sequence (P52643 with tags, fused parts or gaps): T1 sequence (P52643 with tags, fused parts or gaps)
# T3: E. coli BL21(DE3) lactate dehydrogenase LDH (EC 1.1.1.28), N-terminal (His)6, SEQ ID NO 2, assembled on 625 QDs (Escherichia coli, UniProt P52643)
# T3 sequence (P52643 with tags, fused parts or gaps): T1 sequence (P52643 with tags, fused parts or gaps)
# T4: E. coli BL21(DE3) lactate dehydrogenase LDH (EC 1.1.1.28), N-terminal (His)6, SEQ ID NO 2, assembled on 641 QDs (Escherichia coli, UniProt P52643)
# T4 sequence (P52643 with tags, fused parts or gaps): T1 sequence (P52643 with tags, fused parts or gaps)
# T5: E. coli BL21(DE3) lactate dehydrogenase LDH (EC 1.1.1.28), N-terminal (His)6, SEQ ID NO 2, assembled on NPLs (Escherichia coli, UniProt P52643)
# T5 sequence (P52643 with tags, fused parts or gaps): T1 sequence (P52643 with tags, fused parts or gaps)
# T6: E. coli BL21(DE3) lactate dehydrogenase LDH (EC 1.1.1.28), N-terminal (His)6, SEQ ID NO 2, on mixed 525 QD/NPL (Escherichia coli, UniProt P52643)
# T6 sequence (P52643 with tags, fused parts or gaps): T1 sequence (P52643 with tags, fused parts or gaps)
# B1: E. coli BL21(DE3) lactate dehydrogenase LDH (EC 1.1.1.28), N-terminal (His)6, SEQ ID NO 2, free in solution (Escherichia coli K-12) (protein)
# chain: T1 sequence (P52643 with tags, fused parts or gaps)
# Experiments:
# [1] = molecular target: E. coli BL21(DE3) pyruvate kinase PykA (EC 2.7.1.40), N-terminal (His)6, SEQ ID NO 1, free in solution (Escherichia coli, UniProt P21599); settings: free enzyme (ratio 0), apparent
# [2] = molecular target: E. coli BL21(DE3) pyruvate kinase PykA (EC 2.7.1.40), N-terminal (His)6, SEQ ID NO 1, on mixed 525 QD/NPL (Escherichia coli, UniProt P21599); settings: ratio 2 enzyme per NP
# Text: To examine the display of enzymes on mixed NP scaffolds, next examined was the individual activity of Pyka and LDH at a ratio of 2 enzyme per NP in representative samples comprising of three different ratios of 525 QD to NPL, see Table 3.
# [3] = molecular target: T1, E. coli BL21(DE3) lactate dehydrogenase LDH (EC 1.1.1.28), N-terminal (His)6, SEQ ID NO 2, free in solution; experiment: Michaelis Menten kinetics of LDH free in solution; assay type: biochemical, E. coli strain BL21(DE3); settings: free enzyme (ratio 0), apparent
# [4] = molecular target: T2, E. coli BL21(DE3) lactate dehydrogenase LDH (EC 1.1.1.28), N-terminal (His)6, SEQ ID NO 2, assembled on 525 QDs; experiment: Michaelis Menten kinetics of LDH assembled on 525 QDs; assay type: biochemical, E. coli strain BL21(DE3); settings: apparent
# Text: (§1) The latter are a quasi-two-dimensional QD-like material. As noted above in the Definitions section, NP or nanomaterial is used interchangeable to refer generically to these materials while QDs and NPLs are used to specify a given type. The NP materials were surface functionalized with the zwitterionic dihydrolipoic acid derivative compact ligand 4 (CL4, see U.S. Pat. No. 8,859,284), which replace the hydrophobic ligands utilized during nanomaterial crystal growth for colloidal stability in aqueous buffers. For enzyme attachment or bioconjugation to the NPs, self-assembly was driven by metal affinity coordination of the enzyme's pendant (His)6-motifs to the QD's ZnS shell.
# [5] = molecular target: T3, E. coli BL21(DE3) lactate dehydrogenase LDH (EC 1.1.1.28), N-terminal (His)6, SEQ ID NO 2, assembled on 625 QDs; experiment: Michaelis Menten kinetics of LDH assembled on 625 QDs; assay type: biochemical, E. coli strain BL21(DE3); settings: apparent
# Text: as §1
# [6] = molecular target: T4, E. coli BL21(DE3) lactate dehydrogenase LDH (EC 1.1.1.28), N-terminal (His)6, SEQ ID NO 2, assembled on 641 QDs; experiment: Michaelis Menten kinetics of LDH assembled on 641 QDs; assay type: biochemical, E. coli strain BL21(DE3); settings: apparent
# Text: as §1
# [7] = molecular target: T5, E. coli BL21(DE3) lactate dehydrogenase LDH (EC 1.1.1.28), N-terminal (His)6, SEQ ID NO 2, assembled on NPLs; experiment: Michaelis Menten kinetics of LDH assembled on NPLs; assay type: biochemical, E. coli strain BL21(DE3); settings: ratio 1 LDH per NPL, apparent
# Text: as §1
# [8] = molecular target: T6, E. coli BL21(DE3) lactate dehydrogenase LDH (EC 1.1.1.28), N-terminal (His)6, SEQ ID NO 2, on mixed 525 QD/NPL; assay type: biochemical, E. coli strain BL21(DE3); settings: 0.75 nM 525 QD/0.5 nM NPL, ratio 2 per NP, apparent
# Text: as §1
# [9] = substrate: CC(=O)C(=O)O; experiment: Michaelis Menten kinetics of LDH free in solution; assay type: biochemical, E. coli strain BL21(DE3); settings: other: free enzyme (ratio 0), apparent, pH 8.0
# Chain of E. coli BL21(DE3) pyruvate kinase PykA (EC 2.7.1.40), N-terminal (His)6, SEQ ID NO 1, on mixed 525 QD/NPL (P21599 whole entry, added parts left off): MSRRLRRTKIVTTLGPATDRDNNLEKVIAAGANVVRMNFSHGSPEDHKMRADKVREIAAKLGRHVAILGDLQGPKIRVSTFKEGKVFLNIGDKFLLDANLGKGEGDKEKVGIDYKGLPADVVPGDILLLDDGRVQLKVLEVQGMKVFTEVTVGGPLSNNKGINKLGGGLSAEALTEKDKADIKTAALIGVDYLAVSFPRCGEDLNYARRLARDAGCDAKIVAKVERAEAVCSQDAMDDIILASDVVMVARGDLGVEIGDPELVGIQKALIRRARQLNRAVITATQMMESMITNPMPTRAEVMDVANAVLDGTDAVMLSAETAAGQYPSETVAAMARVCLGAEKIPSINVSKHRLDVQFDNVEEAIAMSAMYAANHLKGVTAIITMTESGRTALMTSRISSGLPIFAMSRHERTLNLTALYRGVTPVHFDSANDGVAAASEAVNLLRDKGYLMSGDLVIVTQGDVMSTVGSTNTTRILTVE
# Chain of E. coli BL21(DE3) pyruvate kinase PykA (EC 2.7.1.40), N-terminal (His)6, SEQ ID NO 1, free in solution (P21599 whole entry, added parts left off): as above
molecule,measurement,setting,value
"C=C(OP(=O)(O)O)C(=O)O [PEP, phosphoenolpyruvic acid]",kcat,[1],25 s⁻¹
same,kcat,[2],13.3 s⁻¹
CC(=O)C(=O)O [pyruvic acid],kcat,[3],13.3 s⁻¹
same,kcat/KM,[3],0.015 ± 0.007 M⁻¹ s⁻¹
same,VMax,[4]; ratio 1 LDH per QD,40.0 ± 6 nM/s
same,kcat,[4]; ratio 1 LDH per QD,15.9 ± 0.4 s⁻¹
same,kcat/KM,[4]; ratio 1 LDH per QD,0.015 ± 0.0005 M⁻¹ s⁻¹
same,VMax,[4]; ratio 2 LDH per QD,45.0 ± 1 nM/s
same,kcat/KM,[4]; ratio 2 LDH per QD,0.02 ± 0.007 M⁻¹ s⁻¹
same,VMax,[4]; ratio 4 LDH per QD,40.0 ± 1 nM/s
same,kcat,[4]; ratio 4 LDH per QD,15.5 ± 0.1 s⁻¹
same,kcat/KM,[4]; ratio 4 LDH per QD,0.014 ± 0.004 M⁻¹ s⁻¹
same,VMax,[4]; ratio 8 LDH per QD,57.0 ± 1 nM/s
same,kcat/KM,[4]; ratio 8 LDH per QD,0.015 ± 0.003 M⁻¹ s⁻¹
same,VMax,[5]; ratio 1 LDH per QD,69.0 ± 1 nM/s
same,kcat/KM,[5]; ratio 1 LDH per QD,0.021 ± 0.005 M⁻¹ s⁻¹
same,VMax,[5]; ratio 2 LDH per QD,58.0 ± 3 nM/s
same,kcat/KM,[5]; ratio 2 LDH per QD,0.023 ± 0.004 M⁻¹ s⁻¹
same,VMax,[5]; ratio 4 LDH per QD,49.0 ± 1 nM/s
same,kcat,[5]; ratio 4 LDH per QD,19.5 ± 0.1 s⁻¹
same,kcat/KM,[5]; ratio 4 LDH per QD,0.018 ± 0.005 M⁻¹ s⁻¹
same,VMax,[5]; ratio 8 LDH per QD,52.0 ± 1 nM/s
same,kcat,[5]; ratio 8 LDH per QD,20.7 ± 0.1 s⁻¹
same,kcat/KM,[5]; ratio 8 LDH per QD,0.017 ± 0.005 M⁻¹ s⁻¹
same,VMax,[6]; ratio 1 LDH per QD,8.3 ± 0.1 nM/s
same,kcat,[6]; ratio 1 LDH per QD,3.32 ± 0.1 s⁻¹
same,kcat/KM,[6]; ratio 1 LDH per QD,0.006 ± 0.002 M⁻¹ s⁻¹
same,VMax,[6]; ratio 2 LDH per QD,7.7 ± 0.3 nM/s
same,kcat/KM,[6]; ratio 2 LDH per QD,0.0038 ± 0.0007 M⁻¹ s⁻¹
same,VMax,[6]; ratio 4 LDH per QD,3.6 ± 0.5 nM/s
same,kcat,[6]; ratio 4 LDH per QD,1.45 ± 0.1 s⁻¹
same,kcat/KM,[6]; ratio 4 LDH per QD,0.0021 ± 0.001 M⁻¹ s⁻¹
same,VMax,[6]; ratio 8 LDH per QD,2.6 ± 0.3 nM/s
same,kcat,[6]; ratio 8 LDH per QD,1.04 ± 0.1 s⁻¹
same,kcat/KM,[6]; ratio 8 LDH per QD,0.0013 ± 0.0003 M⁻¹ s⁻¹
same,kcat,[7],32.3 s⁻¹
same,VMax,[8],53.0 ± 1 nM/s
same,kcat/KM,[8],0.019 ± 0.002 M⁻¹ s⁻¹
B1,Km,[9],900 ± 400 µM
same,Vmax,[9],1.98 µM/min
